Among the data in patent US7524860B2, “Antibacterial agents” (Pfizer Inc., priority 2004, dated 2009) are melting point and MIC values, retold here.

Converted amounts (≈) assume the structure as drawn. Like-named read-outs stand apart in the source and are kept apart here.

Usually melting point stands for the temperature, or range, at which the solid turns liquid. Usually MIC stands for the least concentration at which growth counts as inhibited.

The test system of data set [1] is Neisseria gonorrhoeae, GC525 (NG-2888). Briefly: in-vitro antibacterial activity, microbroth dilution MIC susceptibility testing. In kind it is cell-based. Set-up: unit: ug/mL. The following applies: microbroth dilution in gonococcal broth, 20-24 hours at 35 C, lowest concentration preventing visible growth. Summed up: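 Broth microdilution in gonococcal broth, inoculum ~5×10^5 cfu/mL, 20-24 h at 35 C in humidified CO2; compounds from 2 mg/mL DMSO stocks over 64-0.06 and 1-0.001 ug/mL two-fold series. MIC is the lowest concentration preventing visible growth, read visually; duplicates differing one well give the lower value, two wells the middle value.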
For orientation: Dilution methods test growth across graded concentrations, often in twofold steps.

Setting [2] is: Neisseria gonorrhoeae, read-out: MIC.

Take `CCNC(=O)Nc1nc2cc(-c3cnc(N(C)C)nc3)cc(C(=O)NCC)n2n1` [Example 20, 7-[2-(Dimethylamino)pyrimidin-5-yl]-N-ethyl-2-{[(ethylamino)carbonyl]amino}[1,2,4]triazolo[1,5-a]pyridine-5-carboxamide]: the melting point was in the range of 328 to 334 °C. For the same compound, the MIC in data set [1] (setting [2]) was 1 µg/mL (≈ 2.52 µM).

For the compound `CCNC(=O)Nc1nc2cc(-c3cccnc3)cc(OCCN(C)C)n2n1` [Example 141, 1-[5-(2-Dimethylamino-ethoxy)-7-pyridin-3-yl-[1,2,4]triazolo[1,5-a]pyridin-2-yl]-3-ethyl-urea], the melting point is 200 to 202 °C. Besides, the MIC in data set [1] (setting [2]) was found to be 32 µg/mL (≈ 86.6 µM).

Take `CCNC(=O)Nc1nc2cc(-c3cccnc3)cc(OCCN3CCCC3)n2n1` [Example 143, N-Ethyl-N′-[7-pyridin-3-yl-5-(2-pyrrolidin-1-ylethoxy)[1,2,4]triazolo[1,5-a]pyridin-2-yl]urea]: the melting point was 189 to 192 °C (dec.). In addition, the MIC in data set [1] (setting [2]) worked out at 32 µg/mL (≈ 80.9 µM).

In the case of `CCNC(=O)Nc1nc2cc(-c3cccnc3)cc(C(=O)OC)n2n1` [Example 6, 2-(3-Ethyl-ureido)-7-pyridin-3-yl-[1,2,4]triazolo[1,5-a]pyridine-5-carboxylic acid methyl ester], the melting point is 211 to 213 °C. In data set [1] (setting [2]), the minimal inhibitory concentration (MIC) worked out at 16 µg/mL (≈ 47 µM).

Turning to `CCNC(=O)Nc1nc2cc(-c3cnc(OC)nc3)ccn2n1` [Example 3, 1-Ethyl-3-[7-(2-methoxy-pyrimidin-5-yl)-[1,2,4]triazolo[1,5-a]pyridin-2-yl]-urea], the melting point fell in the range of 243 to 248 °C. The MIC in data set [1] (setting [2]) was greater than 64 µg/mL.

As to `CCNC(=O)Nc1nc2cc(-c3cccnc3)cc(N3CCOCC3)n2n1` [Example 133, 1-Ethyl-3-(5-morpholin-4-yl-7-pyridin-3-yl-[1,2,4]triazolo[1,5-a]pyridin-2-yl)-urea], the melting point is 298 to 300 °C. Further, the MIC in data set [1] (setting [2]) was determined as 0.25 µg/mL (≈ 0.68 µM).

As for `CCNC(=O)Nc1nc2cc(-c3cccnc3)cc(C(=O)NC)n2n1` [Example 7, 2-(3-Ethyl-ureido)-7-pyridin-3-yl-[1,2,4]triazolo[1,5-a]pyridine-5-carboxylic acid methylamide], the melting point was greater than 300 °C. Besides, the minimum inhibitory concentration (MIC) in data set [1] (setting [2]) is 2 µg/mL (≈ 5.89 µM).

`CCNC(=O)Nc1nc2cc(-c3c(C)noc3C)cc(C(=O)NCC)n2n1` [Example 21, 7-(3,5-Dimethylisoxazol-4-yl)-N-ethyl-2-{[(ethylamino)carbonyl]amino}[1,2,4]triazolo[1,5-a]pyridine-5-carboxamide] gave a melting point of 238 to 241 °C. For the same compound, the MIC in data set [1] (setting [2]) is greater than 64 µg/mL.

Consider `CCNC(=O)Nc1nc2cc(-c3cccnc3)cc(N3CCC(N(C)C)C3)n2n1` (centres unmarked) [Example 130, 1-[5-(3-Dimethylamino-pyrrolidin-1-yl)-7-pyridin-3-yl-[1,2,4]triazolo[1,5-a]pyridin-2-yl]-3-ethyl-urea], for which the melting point was in the range of 248 to 250 °C. Besides, the minimum inhibitory concentration (MIC) in data set [1] (setting [2]) was 16 µg/mL (≈ 40.6 µM).

`CCNC(=O)Nc1nc2cc(-c3cncnc3)cc(C(=O)NCC)n2n1` [Example 19, N-Ethyl-2-{[(ethylamino)carbonyl]amino}-7-pyrimidin-5-yl[1,2,4]triazolo[1,5-a]pyridine-5-carboxamide] registered a melting point of 317 to 321 °C. Besides, the MIC in data set [1] (setting [2]) came to 1 µg/mL (≈ 2.82 µM).

The compound `CCNC(=O)Nc1nc2cc(-c3cccnc3)ccn2n1` [Example 1, 1-Ethyl-3-(7-pyridin-3-yl-[1,2,4]triazolo[1,5-a]pyridin-2-yl)-urea] came in with a melting point of 230 to 233 °C. For the same compound, the minimal inhibitory concentration (MIC) in data set [1] (setting [2]) turned out to be 32 µg/mL (≈ 113 µM).

In turn, `CCNC(=O)Nc1nc2cc(-c3cccnc3)cc(C(=O)OCC)n2n1` [Example 16, 2-(3-ethyl-ureido)-7-pyridin-3-yl-[1,2,4]triazolo[1,5-a]pyridine-5-carboxylic acid ethyl ester] yielded a melting point of 242 to 245 °C.

Take `CCNC(=O)Nc1nc2cc(-c3cccnc3)cc(-c3nnc(C)o3)n2n1` [Example 23, N-Ethyl-N′-[5-(5-methyl-1,3,4-oxadiazol-2-yl)-7-pyridin-3-yl[1,2,4]triazolo[1,5-a]pyridin-2-yl]urea]: the melting point lay in the range of 318 to 321 °C. In addition, the MIC in data set [1] (setting [2]) was greater than 64 µg/mL.

`CCNC(=O)Nc1nc2cc(-c3ccc(OC)nc3)ccn2n1` [Example 2, 1-Ethyl-3-[7-(6-methoxy-pyridin-3-yl)-[1,2,4]triazolo[1,5-a]pyridin-2-yl]-urea] displayed a melting point of 230 to 233 °C. Moreover, in data set [1] (setting [2]), the MIC was greater than 64 µg/mL.

Regarding `CCNC(=O)Nc1nc2cc(-c3cccnc3)cc(C(=O)N[C@H]3CC[C@H](O)CC3)n2n1` [Example 39, trans-2-(3-Ethyl-ureido)-7-pyridin-3-yl-[1,2,4]triazolo[1,5-a]pyridine-5-carboxylic acid (4-hydroxy-cyclohexyl)-amide], the MIC in data set [1] (setting [2]) was determined as 32 µg/mL (≈ 75.6 µM).

Consider `CCNC(=O)Nc1nc2cc(-c3cccnc3)cc(-c3nc(C)no3)n2n1` [Example 18, 1-Ethyl-3-[5-(3-methyl-[1,2,4]oxadiazol-5-yl)-7-pyridin-3-yl-[1,2,4]triazolo[1,5-a]pyridin-2-yl]-urea], for which the melting point was 298 to 301 °C.

With `CCNC(=O)Nc1nc2cc(-c3cccnc3)cc(C(=O)NCc3cccnc3)n2n1` [Example 91, 2-(3-Ethyl-ureido)-7-pyridin-3-yl-[1,2,4]triazolo[1,5-a]pyridine-5-carboxylic acid(pyridin-3-ylmethyl)-amide], the minimum inhibitory concentration (MIC) in data set [1] (setting [2]) was determined as 16 µg/mL (≈ 38.4 µM).

In the case of “1-Ethyl-3-(5-ethylaminomethyl-7-pyridin-3-yl-imidazo[1,2-a]pyridin-2-yl)-urea [Example 115]”, the minimum inhibitory concentration (MIC) in data set [1] stood at 32.0 µg/mL.

Take `CCNC(=O)Nc1nc2cc(-c3ccc(C(C)(C)C)cc3)cc(C(=O)NCC)n2n1` [Example 58, 7-(4-tert-Butyl-phenyl)-2-(3-ethyl-ureido)-[1,2,4]triazolo[1,5-a]pyridine-5-carboxylic acid ethylamide]: the MIC in data set [1] (setting [2]) stood at 2 µg/mL (≈ 4.9 µM).

In data set [1], “1-[7-(6-Dimethylamino-pyridin-3-yl)-[1,2,4]triazolo[1,5-a]pyridin-2-yl]-3-ethyl-urea [Example 4]” gave an MIC greater than 64.0 µg/mL.

In the case of `CCNC(=O)Nc1nc2cc(-c3cccnc3)cc(C#N)n2n1` [Example 27, N-(5-Cyano-7-pyridin-3-yl[1,2,4]triazolo[1,5-a]pyridin-2-yl)-N′-ethylurea], the minimal inhibitory concentration (MIC) in data set [1] (setting [2]) stood at 2 µg/mL (≈ 6.51 µM).

In the case of `CCNC(=O)Nc1nc2cc(-c3cnc(OC)nc3OC)cc(C(=O)NCC)n2n1` [Example 98, 7-(2,4-Dimethoxy-pyrimidin-5-yl)-2-(3-ethyl-ureido)-[1,2,4]triazolo[1,5-a]pyridine-5-carboxylic acid ethylamide], the MIC in data set [1] (setting [2]) amounted to 2 µg/mL (≈ 4.83 µM).

For the compound `CCNC(=O)Nc1nc2cc(-c3cccc4ncccc34)cc(C(=O)NCC)n2n1` [Example 78, 2-(3-Ethyl-ureido)-7-quinolin-5-yl-[1,2,4]triazolo[1,5-a]pyridine-5-carboxylic acid ethylamide], the minimum inhibitory concentration (MIC) in data set [1] (setting [2]) was found to be 8 µg/mL (≈ 19.8 µM).

On to `CCNC(=O)Nc1nc2cc(-c3ccncc3Cl)cc(C(=O)NCC)n2n1` [Example 95, 7-(3-Chloro-pyridin-4-yl)-2-(3-ethyl-ureido)-[1,2,4]triazolo[1,5-a]pyridine-5-carboxylic acid ethylamide], for which the MIC in data set [1] (setting [2]) stood at 32 µg/mL (≈ 82.5 µM).

Consider `CCNC(=O)Nc1nc2cc(-c3cccnc3)cc(C(=O)N[C@H](C)c3ccccc3)n2n1` [Example 48, (R)-2-(3-Ethyl-ureido)-7-pyridin-3-yl-[1,2,4]triazolo[1,5-a]pyridine-5-carboxylic acid(1-phenyl-ethyl)-amide], for which the MIC in data set [1] (setting [2]) was found to be 16 µg/mL (≈ 37.3 µM).

Take `CCNC(=O)Nc1nc2cc(-c3cnc(N(C)C)nc3)cc(-c3nnc(CC(C)C)s3)n2n1` [Example 30]: the minimum inhibitory concentration (MIC) in data set [1] was greater than 64.0 µg/mL.

Take `CCNC(=O)Nc1nc2cc(-c3cccnc3)cc(N3CCC(O)C3)n2n1` (centres unmarked) [Example 134, 1-Ethyl-3-[5-(3-hydroxy-pyrrolidin-1-yl)-7-pyridin-3-yl-[1,2,4]triazolo[1,5-a]pyridin-2-yl]-urea]: the melting point was 296 to 298 °C. Further, the minimum inhibitory concentration (MIC) in data set [1] (setting [2]) was 32 µg/mL (≈ 87.1 µM).
